The record followed here is patent US20130331266A1, “METHOD FOR CONTROLLING WEEDS IN PADDY RICE CULTIVATION” (SUMITOMO CHEMICAL COMPANY, LIMITED, priority 2011, published 2013).

Assay type in all cases: in vivo
Assay [1] has as its system Leptochloa chinenisis. The assay is described as follows: Pot test Example 5: herbicidal effect on Leptochloa chinenisis, spray at 0.5 cm water then flooding. The note with it: score 0-100, 100 g/ha, second or third leaf stage, evaluated 2 weeks after application. The procedure:
(§1) In Examples of the method of the present invention, a criterion for evaluating a herbicidal effect is as follows.
A 1/10000-are Wagner pot was filled with a paddy field soil, and then water was added thereto followed by soil puddling. After draining, a pre-germinated Leptochloa chinenisis was sown, and then grown in a glasshouse. Sixteen (16) days after the sowing when Leptochloa chinenisis had the second or third leaves, each water-diluted solution containing 50 ppm of Compound 1, Compound 2, or Compound 3 was applied by spraying on the surface of the pot with a sprayer so that each amount of Compound 1, Compound 2, and Compound 3 as listed in Table 4 was applied. When applying the water-diluted solution, the pot was flooded to a depth of 0.5 cm. The pot was flooded with water to a depth of 4 cm or 2 cm on the next day of the application of the herbicide or 5 days after the application of the herbicide. And then, the plant was grown in the glasshouse.
Two (2) weeks after the application of the herbicide, the herbicidal effect on Leptochloa chinenisis was evaluated.

Assay [2] has as its system Echinochloa oryzicola. Kind of assay: Pot test Example 3: herbicidal effect on Echinochloa oryzicola, spray on drained soil then flooding. The note with it: score 0-100, 25 g/ha, 4th leaf stage, evaluated 2 weeks after application. The protocol:
as §1
A 1/10000-are pot was filled with a paddy field soil, and then water was added thereto followed by soil puddling. After draining, a pre-germinated Echinochloa oryzicola was sown, and then grown in a glasshouse. Sixteen (16) days after the sowing when Echinochloa oryzicola had the 4th leaves, each water-diluted solution containing 112 ppm of Compound 2 or Compound 3 was applied by spraying on the surface of the pot with a sprayer so that each amount of Compound 2 and Compound 3 as listed in Table 3 was applied. Each water-diluted solution of Compound 2 and Compound 3 was prepared by dissolving a given amount of Compound 2 or Compound 3 in acetone containing 2% (w/v) of Tween 20, followed by diluting the resulting solution with water so that the concentration of acetone was 10% by volume. When applying the water-diluted solution, the soil was well drained. The pot was flooded with water to a depth of 5 cm on the day of the application of the herbicide, the next day of the application of the herbicide, 3 days after the application of the herbicide, or 7 days after the application of the herbicide. And then, the plant was grown in the glasshouse.
Two (2) weeks after the application of the herbicide, the herbicidal effect on Echinochloa oryzicola was evaluated.

Assay [3] has as its system Echinochloa oryzicola. The assay is described as follows: Pot test Example 2: herbicidal effect on Echinochloa oryzicola, spray on drained soil then flooding. The note with it: score 0-100, 25 g/ha, 4th leaf stage, evaluated 4 weeks after application. The procedure:
as §1
(§2) A 1/10000-are pot was filled with a paddy field soil, and then water was added thereto followed by soil puddling. After draining, a pre-germinated Echinochloa oryzicola was sown, and then grown in a glasshouse. Sixteen (16) days after the sowing when Echinochloa oryzicola had the 4th leaves, a water-diluted solution (112 ppm of Compound 1) a flowable containing 10% Compound 1 was applied by spraying on the surface of the pot with a sprayer so that the amount of Compound 1 as listed in Table 2 was applied. When applying with the water-diluted solution, the soil was well drained. The pot was flooded with water to a depth of 5 cm on the day of the application of the herbicide, the next day of the application of the herbicide, or 3 days after the application of the herbicide. And then, the plant was grown in the glasshouse. Four (4) weeks after the application of the herbicide, the herbicidal effect on Echinochloa oryzicola was evaluated.

Assay [4] concerns Echinochloa oryzicola. Kind of assay: Pot test Example 1: herbicidal effect on Echinochloa oryzicola, spray on drained soil then flooding. The settings on record: score 0-100, 30 g/ha, 4th leaf stage, evaluated 4 weeks after application. The protocol: as §1
as §2, with “1/5000-are Wagner” for “1/10000-are”, “Fourteen (14)” for “Sixteen (16)”, “(134” for “(112”, “1) of” for “1)”, “1” for “2”, “applying” for “applying with”

[5] abbreviates: flooded 5 days after treatment, depth 4 cm.
[6] abbreviates: flooded next day of treatment, depth 2 cm.
The mark [7] stands for this setting: flooded next day of treatment, depth 4 cm.
The mark [8] stands for this setting: flooded to 5 cm 3 days after treatment.
Where [9] appears, read: flooded to 5 cm 7 days after treatment.
Where [10] appears, read: flooded to 5 cm on day of treatment.
The mark [11] stands for this setting: flooded to 5 cm on next day of treatment.

As to `COCc1cccc(C(O)c2nc(OC)cc(OC)n2)c1NS(=O)(=O)C(F)F` (racemic) [Compound 2, (RS)-2′-[(4,6-Dimethoxypyrimidin-2-yl)(hydroxy)methyl]-1,1-difluoro-6′-(methoxymethyl)methanesulfonanilide], the “Herbicidal effect on Leptochloa chinenisis” value in assay [1] (setting [5]) was determined as 80; in assay [1] (setting [6]), 80; in assay [1] (setting [7]) it was 90. The “Herbicidal effect on Echinochloa oryzicola” value in assay [2] (setting [8]) came to 90; in assay [2] (setting [9]) it was 80; in assay [2] (setting [10]), 89; in assay [2] (setting [11]), 92.
Take `COc1cc(OC)nc(NC(=O)NS(=O)(=O)c2c(C3=NOCC(C)O3)c(Cl)nn2C)n1` (racemic) [Compound 3, 1-{3-Chloro-1-methyl-4-[(5RS)-5,6-dihydro-5-methyl-1,4,2-dioxazin-3-yl]pyrazol-5-ylsulfonyl}-3-(4,6-dimethoxypyrimidin-2-yl)urea]: the “Herbicidal effect on Leptochloa chinenisis” value in assay [1] (setting [5]) came to 60; in assay [1] (setting [7]) it was 90. Besides, the “Herbicidal effect on Echinochloa oryzicola” value in assay [2] (setting [8]) worked out at 75; in assay [2] (setting [9]) it was 75; in assay [2] (setting [10]), 83; in assay [2] (setting [11]), 83.
Turning to `CCCc1ccc2nc(Cl)c(S(=O)(=O)NC(=O)Nc3nc(OC)cc(OC)n3)n2n1` [Compound 1, 1-(2-Chloro-6-propylimidazo[1,2-b]pyridazin-3-ylsulfonyl)-3-(4,6-dimethoxypyrimidin-2-yl)urea], the “Herbicidal effect on Echinochloa oryzicola” value in assay [3] (setting [8]) is given as 85; in assay [3] (setting [10]), 88; in assay [3] (setting [11]), 93; in assay [4] (setting [8]), 90; in assay [4] (setting [10]), 96; in assay [4] (setting [11]), 97. Further, the “Herbicidal effect on Leptochloa chinenisis” value is on record as 75 in assay [1] (setting [5]), 75 in assay [1] (setting [6]) and 90 in assay [1] (setting [7]).
